Results as given in US12495798B2, “Nicotinamide compound and herbicidal composition comprising compound” (KOREA RESEARCH INSTITUTE OF CHEMICAL TECHNOLOGY, priority 2019, dated 2025).

Key:
Type in all cases: in vivo
barnyard grass = experiment: Herbicidal activity test against upland field weeds (foliar treatment test); design: key to Foliar treatment herbicidal activity, barnyard grass: 0 (no control); 100 (complete control); conditions: 50 g ai/ha, scale 0-100; for pest or weed control at 50 g/ha: Echinochloa crus-galli
In short: (§1)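 Visual 0–100 control ratings relative to untreated plants, taken 14 (or 21) days after spraying foliage at 50 or 75 g a.i./ha. Spray solution: 50% acetone with 0.1% Tween-20; plants kept in greenhouse at 30±5 °C, 14 h light/10 h dark.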

indian jointvetch [1] = experiment: as above; design: key to Foliar treatment herbicidal activity, Indian jointvetch: 0 (no control); 100 (complete control); conditions: 50 g ai/ha, scale 0-100
In short: as §1

cocklebur = experiment: as above; design: key to Foliar treatment herbicidal activity, Cocklebur: 0 (no control); 100 (complete control); conditions: 50 g ai/ha, scale 0-100; for pest or weed control at 50 g/ha: Xanthium strumarium
In short: as §1

bindweed [2] = experiment: as above; design: key to Foliar treatment herbicidal activity, Bindweed: 0 (no control); 100 (complete control); conditions: 50 g ai/ha, scale 0-100
In short: as §1

sorghum = experiment: Herbicidal activity test against upland field weeds (soil treatment test); design: key to Soil treatment herbicidal activity, Sorghum: 0 (no control); 100 (complete control); conditions: 50 g ai/ha, scale 0 (no control) to 100 (complete control)
In short: (§2)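 Weed control scored visually on a 0 (none) to 100 (complete) scale versus untreated pots at 14 or 21 days in greenhouse (30±5 °C, 14 h light). Test compounds, 50 or 75 g a.i./ha in 50% acetone/0.1% Tween-20, hand-sprayed onto soil one day post-sowing.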

indian jointvetch [3] = experiment: as above; design: key to Soil treatment herbicidal activity, Indian jointvetch: 0 (no control); 100 (complete control); conditions: 50 g ai/ha, scale 0 (no control) to 100 (complete control)
In short: as §2

velvetleaf = experiment: as above; design: key to Soil treatment herbicidal activity, velvet leaf: 0 (no control); 100 (complete control); conditions: 50 g ai/ha, scale 0 (no control) to 100 (complete control)
In short: as §2

bindweed [4] = experiment: as above; design: key to Soil treatment herbicidal activity, Bindweed: 0 (no control); 100 (complete control); conditions: 50 g ai/ha, scale 0 (no control) to 100 (complete control)
In short: as §2

corn = experiment: Phytotoxicity test for upland field crops (foliar treatment test); design: key: 0 (no harm); 9 (complete withered)
In short: (§3)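 Spray-booth foliar treatment of greenhouse-grown crops at 19˜300 g a.i./ha. Visual crop injury was scored 0–9 against untreated plants at 7 and 14 days.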

cotton = experiment: as above; design: key: 0 (no harm); 9 (complete withered)
In short: as §3

rice = experiment: as above; design: key: 0 (no harm); 9 (complete withered)
In short: as §3

soybean = experiment: as above; design: key: 0 (no harm); 9 (complete withered)
In short: as §3

wheat = experiment: as above; design: key: 0 (no harm); 9 (complete withered)
In short: as §3

quack grass = experiment: Herbicidal activity test against upland field weeds (soil treatment test); design: key to Soil treatment herbicidal activity, quack grass: 0 (no control); 100 (complete control); conditions: 50 g ai/ha, scale 0 (no control) to 100 (complete control)
In short: as §2

[5] = 50 g ai/ha, Corn (7 days after treatment)
[6] = 50 g ai/ha, Corn (14 days after treatment)
[7] = 100 g ai/ha, Corn (7 days after treatment)
[8] = 100 g ai/ha, Corn (14 days after treatment)
[9] = 50 g ai/ha, Cotton (7 days after treatment)
[10] = 50 g ai/ha, Cotton (14 days after treatment)
[11] = 100 g ai/ha, Cotton (7 days after treatment)
[12] = 100 g ai/ha, Cotton (14 days after treatment)
[13] = 50 g ai/ha, Rice (7 days after treatment)
[14] = 50 g ai/ha, Rice (14 days after treatment)
[15] = 100 g ai/ha, Rice (7 days after treatment)
[16] = 100 g ai/ha, Rice (14 days after treatment)
[17] = 50 g ai/ha, Soybean (7 days after treatment)
[18] = 50 g ai/ha, Soybean (14 days after treatment)
[19] = 100 g ai/ha, Soybean (7 days after treatment)
[20] = 100 g ai/ha, Soybean (14 days after treatment)
[21] = 50 g ai/ha, Wheat (7 days after treatment)
[22] = 50 g ai/ha, Wheat (14 days after treatment)
[23] = 100 g ai/ha, Wheat (7 days after treatment)
[24] = 100 g ai/ha, Wheat (14 days after treatment)

Structure (SMILES)	Soil treatment herbicidal activity, Sorghum (sorghum)	Soil treatment herbicidal activity, velvet leaf (velvetleaf)	Foliar treatment phytotoxicity, Corn (corn; [5])	Foliar treatment phytotoxicity, Corn (corn; [6])	Foliar treatment phytotoxicity, Corn (corn; [7])	Foliar treatment phytotoxicity, Corn (corn; [8])	Foliar treatment phytotoxicity, Cotton (cotton; [9])	Foliar treatment phytotoxicity, Cotton (cotton; [10])	Foliar treatment phytotoxicity, Cotton (cotton; [11])	Foliar treatment phytotoxicity, Cotton (cotton; [12])	Foliar treatment phytotoxicity, Rice (rice; [13])	Foliar treatment phytotoxicity, Rice (rice; [14])	Foliar treatment phytotoxicity, Rice (rice; [15])	Foliar treatment phytotoxicity, Rice (rice; [16])	Foliar treatment phytotoxicity, Soybean (soybean; [17])	Foliar treatment phytotoxicity, Soybean (soybean; [18])	Foliar treatment phytotoxicity, Wheat (wheat; [21])	Foliar treatment phytotoxicity, Wheat (wheat; [22])	Foliar treatment phytotoxicity, Wheat (wheat; [23])	Foliar treatment phytotoxicity, Wheat (wheat; [24])	other results
Cn1cnc(COCc2nc(C(F)F)ccc2C(=O)Nc2nnnn2C)n1 [Compound No. 2-85]	0	20	0	0	0	0	7	7	8	9	7	7	8	1	4	6	0	0	2	0	Foliar treatment herbicidal activity, barnyard grass (barnyard grass): 99; Foliar treatment herbicidal activity, Indian jointvetch (indian jointvetch [1]): 97; Foliar treatment herbicidal activity, Cocklebur (cocklebur): 97; Foliar treatment herbicidal activity, Bindweed (bindweed [2]): 99; Soil treatment herbicidal activity, Indian jointvetch (indian jointvetch [3]): 55; Soil treatment herbicidal activity, Bindweed (bindweed [4]): 35; Foliar treatment phytotoxicity, Soybean (soybean; [19]): 6; Foliar treatment phytotoxicity, Soybean (soybean; [20]): 7
Cn1nnc(CSCc2nc(C(F)(F)F)ccc2C(=O)Nc2nnnn2C)n1 [Compound No. 2-102, N-(1-methyl-1H-tetrazol-5-yl)-2-((((2-methyl-2H-tetrazol-5-yl)methyl)thio)methyl)-6-(trifluoromethyl)nicotinamide]	–	100	0	0	0	0	0	0	0	0	3	3	4	4	0	0	0	0	0	1	pest or weed control at 50 g/ha (barnyard grass): 95%; pest or weed control at 50 g/ha (indian jointvetch [1]): 98%; Foliar treatment herbicidal activity, Cocklebur (cocklebur): 100; Foliar treatment herbicidal activity, Bindweed (bindweed [2]): 100; plant injury at 50 g/ha (sorghum; Sorghum): 20%; Soil treatment herbicidal activity, quack grass (quack grass): 0; Foliar treatment phytotoxicity, Soybean (soybean; [19]): 0; Foliar treatment phytotoxicity, Soybean (soybean; [20]): 0
COc1nc(COCc2nc(C(F)(F)F)ccc2C(=O)Nc2nnnn2C)nn1C [Compound No. 2-129, 2-(((5-methoxy-1-methyl-1H-1,2,4-triazol-3-yl)methoxy)methyl)-N-(1-methyl-1H-tetrazol-5-yl)-6-(trifluoromethyl)nicotinamide]	0	–	0	0	0	0	–	–	–	–	–	–	–	–	–	–	1	1	2	2	pest or weed control at 50 g/ha (barnyard grass): 90%; pest or weed control at 50 g/ha (indian jointvetch [1]): 60%; pest or weed control at 50 g/ha (cocklebur): 70%; pest or weed control at 50 g/ha (bindweed [2]): 40%; Soil treatment herbicidal activity, quack grass (quack grass): 0; Soil treatment herbicidal activity, Indian jointvetch (indian jointvetch [3]): 0
Cn1nc(COCc2nc(C(F)(F)F)ccc2C(=O)Nc2nnnn2C)nc1Cl [Compound No. 2-135, 2-(((5-chloro-1-methyl-1H-1,2,4-triazol-3-yl)methoxy)methyl)-N-(1-methyl-1H-tetrazol-5-yl)-6-(trifluoromethyl)nicotinamide]	0	0	0	0	0	0	3	7	3	7	3	6	4	6	4	6	0	0	0	0	pest or weed control at 50 g/ha (barnyard grass): 98%; pest or weed control at 50 g/ha (indian jointvetch [1]): 95%; pest or weed control at 50 g/ha (cocklebur): 95%; pest or weed control at 50 g/ha (bindweed [2]): 70%; Soil treatment herbicidal activity, quack grass (quack grass): 0; Soil treatment herbicidal activity, Indian jointvetch (indian jointvetch [3]): 0; Foliar treatment phytotoxicity, Soybean (soybean; [19]): 4; Foliar treatment phytotoxicity, Soybean (soybean; [20]): 7
COC(=O)OC(C)N(C(=O)c1ccc(C(F)(F)F)nc1COCc1nnn(C)n1)c1nnnn1C (stereo not drawn) [Compound No. 4-4, methyl(1-(N-(1-methyl-1H-tetrazol-5-yl)-2-(((2-methyl-2H-tetrazol-5-yl)methoxy)methyl)-6-(trifluoromethyl)nicotinamido)ethyl)carbonate]	0	100	0	0	0	0	0	0	0	0	4	4	4	4	0	0	1	0	2	2	Foliar treatment herbicidal activity, barnyard grass (barnyard grass): 100; Foliar treatment herbicidal activity, Indian jointvetch (indian jointvetch [1]): 100; Foliar treatment herbicidal activity, Cocklebur (cocklebur): 98; Foliar treatment herbicidal activity, Bindweed (bindweed [2]): 100; Soil treatment herbicidal activity, quack grass (quack grass): 0; Soil treatment herbicidal activity, Bindweed (bindweed [4]): 0; Foliar treatment phytotoxicity, Soybean (soybean; [19]): 0; Foliar treatment phytotoxicity, Soybean (soybean; [20]): 0
